The Kd is the concentration at which binding is half-saturated. One may read the IC50 as the concentration needed to halve the response being measured.

The values that follow come from paper PMC6217552, “Refining the structure−activity relationships of 2-phenylcyclopropane carboxylic acids as inhibitors of O-acetylserine sulfhydrylase isoforms” (Journal of Enzyme Inhibition and Medicinal Chemistry, 2018).

Several values for one entry are separate records, joined by “and”; a condition that tells them apart may be missing. Identical values can stand only once. Like-named read-outs stand apart in the source and are kept apart here.

Data set [1] concerns the target T1, StOASS-A (Salmonella typhimurium, UniProt P0A1E3).
T1 construct: made in house; host or cells: E. coli
The data set is described as follows: Direct fluorimetric titration of PLP cofactor fluorescence (dissociation constant). The format is binding, Salmonella enterica serovar Typhimurium. Particulars: 100 mM HEPES pH 7.0, 1% DMSO, 20 °C; read-out: OASS-A Kd. As to the method: (§1) StOASS-A and StOASS-B, expressed in E. coli, were purified by metal affinity chromatography as described previously. Proteins were more that 95% pure based on SDS-PAGE analysis (data not shown).
(§2) Ligand affinity was measured by direct fluorimetric titrations, monitoring the fluorescence emission spectrum of cofactor PLP upon excitation at 412 nm. 0.1–1 µM OASS was titrated by increasing concentrations of ligand in 100 mM HEPES pH 7.0, 1% DMSO, at 20 °C. The dependence of fluorescence emission intensity on the concentration of compound was fitted to a binding isotherm: I=I0+ΔI·[ligand]/Kd+[ligand] where, I is the fluorescence emission intensity at a given ligand concentration, I 0 is the fluorescence emission intensity in the absence of ligand, ΔI is the amplitude and K d is the dissociation constant. When the K d was lower than the concentration of the protein used in the assay, the dependence of the fluoresecnce emission intensity on ligand concentration was fitted to a quadratic equation that describes tight binding. The fluorescence competitive binding assay, described elsewhere, was used to evaluate whether compounds bind at the active site of the enzyme or to an allosteric site. The assay is based on the formation of a low-affinity, highly fluorescent complex between OASS and 1-ethylcyclopropane-1,2-dicarboxylic acid. Binding of a higher affinity compound to the active site displaces 1-ethylcyclopropane-1,2-dicarboxylic acid and leads to a decrease in the fluorescence emission intensity.

In data set [2] the target is T2, StOASS-B (Salmonella typhimurium, UniProt P29848).
T2 construct: made in house; host or cells: E. coli
T2 sequence (P29848 1-303): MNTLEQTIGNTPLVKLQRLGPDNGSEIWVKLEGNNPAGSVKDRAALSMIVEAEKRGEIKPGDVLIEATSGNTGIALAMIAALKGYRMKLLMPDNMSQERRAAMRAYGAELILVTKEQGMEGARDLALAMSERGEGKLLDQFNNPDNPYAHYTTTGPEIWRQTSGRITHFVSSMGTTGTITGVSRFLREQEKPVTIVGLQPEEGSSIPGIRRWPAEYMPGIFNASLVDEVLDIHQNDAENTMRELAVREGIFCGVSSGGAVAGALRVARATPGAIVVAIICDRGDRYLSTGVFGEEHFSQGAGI
The data set is described as above. The format is binding. As to the method: as §1, §2

For data set [3], the system named is Escherichia coli ATCC25922. The data set is described as follows: Minimal inhibitory concentration (CLSI) in medium with limiting cysteine. Particulars: E. coli ATCC25922, medium with limiting cysteine; data not shown. Format: cell-based. As to the method:
Minimal inhibitory concentration assays were performed according to the CLSI guidelines (Clinical and Laboratory Standards Institute; Performance Standards for Antimicrobial Susceptibility Testing; Twenty-Fourth Informational Supplement; CLSI document M100-S24, CLSI; 2014.). The compounds were dissolved in DMSO to obtain a stock solution 100-fold more concentrated than the desired higher concentration and then 10 serial dilutions were performed. One microliter of each dilution was transferred to the microtiter plate.
Escherichia coli ATCC25922 was grown until log phase on liquid Mueller–Hinton broth at 37 °C in a shaker at 225 rpm. Bacterial suspension was then centrifuged at 2500 rpm for 15 min and diluted with phosphate buffer to obtain a solution with a turbidity of about 0.5 McFarland. Bacterial suspension was further diluted (1:100) with fresh LB 20%. Fifty microliters of the bacterial suspension containing 10^6 CFU/mL were inoculated into each well, to obtain a final concentration of 5 × 10^5 CFU/mL. Each plate contained growth control wells and sterility check wells.
We investigated the ability of the new set of compounds to interfere with bacterial growth.

Data set [4] deals with T1, StOASS-A. The data set is described as follows: Steady-state enzyme activity assay, discontinuous ninhydrin cysteine determination. Format: biochemical, Salmonella enterica serovar Typhimurium. Particulars: 1 mM OAS, 0.6 mM Na2S, 6 nM OASS, 100 mM HEPES pH 7.0, 1% DMSO. As to the method:
as §1
(§3) Enzyme activity under steady-state conditions was measured by a discontinuous method as described previously. Briefly, the reaction was carried out in 100 mM HEPES pH 7.0 in the presence of 6 nM OASS, 60 nM BSA to prevent enzyme adhesion to tube wall, 1 mM OAS (equal to the K m value of this subsrate), 0.6 mM Na2S (a saturating concentration), 1% DMSO and variable concentrations of inhibitor. Reaction was stopped at time intervals by the addition of acetic acid and concentration of cysteine was determined by a modification of the ninhydrin assay. The fractional velocity as a function of inhibitor concentration was determined and IC50 was calculated by the following equation: vi/v0=1/1+(I/IC50) where, v 0 is the reaction velocity in the absence of inhibitor and v i is reaction velocity in the presence of inhibitor at concentration [I].
(§4) For a competitive inhibitor against OAS the IC50 measured under these conditions is about 2⋅K d.

The target in data set [5] is T2, StOASS-B. Described as above. The format is biochemical. As to the method: as §1, §3, §4
In a further data set the test system is E.coli. Details: method as in manuscript in preparation. Particulars: ref manuscript in preparation, cited from earlier work.

T1 sequence (P0A1E3 whole entry): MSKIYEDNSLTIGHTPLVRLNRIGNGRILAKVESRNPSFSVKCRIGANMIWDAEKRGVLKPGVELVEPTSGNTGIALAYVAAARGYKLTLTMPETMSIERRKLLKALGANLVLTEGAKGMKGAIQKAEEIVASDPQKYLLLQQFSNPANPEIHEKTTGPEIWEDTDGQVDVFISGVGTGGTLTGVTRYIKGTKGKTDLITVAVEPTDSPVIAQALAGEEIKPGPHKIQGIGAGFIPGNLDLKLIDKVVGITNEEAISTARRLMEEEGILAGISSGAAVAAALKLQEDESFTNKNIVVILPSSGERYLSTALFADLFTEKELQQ

Consider `O=C(O)C1(Cn2cncn2)CC1c1ccccc1` (centres unmarked) [Compound 50, 1-((1H-1,2,4-triazol-1-yl)methyl)-2-phenylcyclopropane-1-carboxylic acid], for which the Kd at StOASS-A [1] came out at 18 ± 5 µM; on StOASS-B [2], 250 ± 14 µM.

In the case of `O=C(O)C1(Cc2ccncc2)CC1c1ccccc1` (centres unmarked) [Compound 33, 2-phenyl-1-(pyridin-4-ylmethyl)cyclopropane-1-carboxylic acid], the dissociation constant Kd is 24 ± 2 µM on StOASS-A [1] and 275 ± 42 µM on StOASS-B [2]. Besides, the “Interference with bacterial growth (MIC)” value in data set [3] is given as “none of the synthesised compounds was able to interfere significantly with bacterial growth”.

With `O=C(O)C1(Cn2ccnc2)CC1c1ccccc1` (centres unmarked) [Compound 47, 1-((1H-imidazol-1-yl)methyl)-2-phenylcyclopropane-1-carboxylic acid], the Kd at StOASS-A [1] stood at 7.6 ± 0.5 µM; at StOASS-B [2] it was 397 ± 42 µM.

For “1-(4-methylbenzyl)-2-(pyridin-4-yl)cyclopropane-1-carboxylic acid [Compound 5]”, the dissociation constant (Kd) at StOASS-A [1] was found to be 0.4 ± 0.1 µM; at StOASS-B [2] (100 mM HEPES pH 7.0, 1% DMSO, 20 °C, read-out: OASS-B Kd), 6.1 ± 0.5 µM. The “Interference with bacterial growth (MIC)” value in data set [3] is reported as “none of the synthesised compounds was able to interfere significantly with bacterial growth”.

As for `O=C(O)C1(Cn2cccn2)CC1c1ccccc1` (centres unmarked) [Compound 48, 1-((1H-pyrazol-1-yl)methyl)-2-phenylcyclopropane-1-carboxylic acid], the Kd at StOASS-A [1] was 1.5 ± 0.2 µM; at StOASS-B [2], 96 ± 7 µM.

`Cc1ccc(C[C@]2(C(=O)NCc3ccccc3)C[C@H]2c2ccccc2)cc1` [Compound 18, (1R,2S)-1-N-benzyl-1-(4-methylbenzyl)-2-phenylcyclopropane-1-carboxamide]: the 50% inhibitory concentration (IC50) against StOASS-A [4] was more than 100 µM; on StOASS-B [5] (read-out: OASS-B IC50, 1 mM OAS, 0.6 mM Na2S, 6 nM OASS, 100 mM HEPES pH 7.0, 1% DMSO), more than 100 µM.

For the compound `O=C(O)C1(Cn2cccc2)CC1c1ccccc1` (centres unmarked) [Compound 49, 1-((1H-pyrrol-1-yl)methyl)-2-phenylcyclopropane-1-carboxylic acid], the Kd on StOASS-A [1] worked out at 0.5 ± 0.1 µM; on StOASS-B [2] it was 22 ± 2 µM.

`Cc1ccc(C[C@]2(C(=O)NCC3CCCO3)C[C@H]2c2ccccc2)cc1` (stereo partly drawn) [Compound 22, (1R,2S)-1-(4-methylbenzyl)-2-phenyl-N-((tetrahydrofuran-2-yl)methyl)cyclopropane-1-carboxamide]: the IC50 on StOASS-A [4] and against StOASS-B [5] was more than 100 µM each time.

Turning to `Cc1ccc(CC2(C(=O)O)CC2c2ccc([N+](=O)[O-])cc2)cc1` (centres unmarked) [Compound 8, 1-(4-methylbenzyl)-2-(4-nitrophenyl)cyclopropane-1-carboxylic acid], the values for the Kd on StOASS-A [1] and on StOASS-B [2] were 61 ± 6 µM and 145 ± 2 µM, respectively.

With `Cc1ccc(C[C@]2(C(=O)NCc3cccs3)C[C@H]2c2ccccc2)cc1` [Compound 19, (1R,2S)-1-(4-methylbenzyl)-2-phenyl-N-(thiophen-2-ylmethyl)cyclopropane-1-carboxamide], the IC50 at StOASS-A [4] and on StOASS-B [5] was more than 100 µM throughout.

For the compound `C#CCNC(=O)[C@@]1(Cc2ccc(C)cc2)C[C@H]1c1ccccc1` [Compound 21, (1R,2S)-1-(4-methylbenzyl)-2-phenyl-N-(prop-2-yn-1-yl)cyclopropane-1-carboxamide], the IC50 against StOASS-A [4] and against StOASS-B [5] was more than 100 µM each time.

Turning to `Cc1ccc(CC2(C(=O)O)CC2c2ccc(N)cc2)cc1` (centres unmarked) [Compound 12, 2-(4-aminophenyl)-1-(4-methylbenzyl)cyclopropane-1-carboxylic acid], the equilibrium dissociation constant (Kd) is 1.4 ± 0.3 µM on StOASS-A [1] and 5.7 ± 0.7 µM at StOASS-B [2]. Also, the “Interference with bacterial growth (MIC)” value in data set [3] is “none of the synthesised compounds was able to interfere significantly with bacterial growth”.

Consider `Cc1ccc(C[C@@]2(C(=O)O)C[C@H]2c2ccccc2)cc1` [II, reference compound], for which the figures for the Kd at StOASS-A [1] and at StOASS-B [2] were 0.03 ± 0.01 µM and 0.5 ± 0.1 µM, respectively. Also, the “Inhibitory activity on cell growth” value in the data set on E.coli (E.coli, minimal medium) was “failed to show appreciable inhibitory activity on cell growth”. The “MIC with permeabilizing agent” value in the data set with E.coli (co-administration of sub-lethal concentrations of polymyxin B nonapeptide (PMBN)) is on record as “led to a measurable MIC”.

Take `Cc1ccc(CC2(C(=O)O)CC2c2ccc(CNC(C)C)cc2)cc1` (centres unmarked) [Compound 10, 2-(4-((isopropylamino)methyl)phenyl)-1-(4-methylbenzyl)cyclopropane-1-carboxylic acid]: at StOASS-A [1], the equilibrium dissociation constant (Kd) came out at 155 ± 5 µM.

As to `Cc1ccc(C[C@]2(C(=O)N(C)C3CCOCC3)C[C@H]2c2ccccc2)cc1` [Compound 16, (1R,2S)-1-N-methyl-1-(4-methylbenzyl)-2-phenyl-N-(tetrahydro-2H-pyran-4-yl)cyclopropane-1-carboxamide], the IC50 is 17.2 µM and 17 µM against StOASS-A [4]; 137 ± 10 µM at StOASS-B [5]. For the same compound, the “Interference with bacterial growth (MIC)” value in data set [3] was “none of the synthesised compounds was able to interfere significantly with bacterial growth”.

With `N#C[C@@]1(Cc2ccccc2)C[C@H]1c1ccccc1` [Compound 28, (1R,2S)-1-benzyl-2-phenylcyclopropanecarbonitrile], the IC50 against StOASS-A [4] is more than 250 µM.

As for `CCN1CCCC1CNC(=O)[C@@]1(Cc2ccc(C)cc2)C[C@H]1c1ccccc1` (stereo partly drawn) [Compound 17, (1R,2S)-1-N-((1-ethylpyrrolidin-2-yl)methyl)-1-(4-methylbenzyl)-2-phenylcyclopropane-1-carboxamide], the IC50 against StOASS-A [4] and at StOASS-B [5] was more than 100 µM each time.

With `Cc1ccc(C[C@]2(C(=O)NCc3nccn3C)C[C@H]2c2ccccc2)cc1` [Compound 20, (1R,2S)-1-N-((1-methyl-1H-imidazol-2-yl)methyl)-1-(4-methylbenzyl)-2-phenylcyclopropane-1-carboxamide], the IC50 at StOASS-A [4] and at StOASS-B [5] was more than 100 µM each time.

Consider `c1ccc(C[C@]2(c3nnn[nH]3)C[C@H]2c2ccccc2)cc1` [Compound 29, (1R,2S)-5-(1-benzyl-2-phenylcyclopropyl)-1H-tetrazole], for which the Kd on StOASS-A [1] was determined as 90 ± 14 µM.
